“Also recorded” adds a separate entry of the source.
What was measured:
[1] = In vivo analysis: FLuc oRNA LNPs, whole body and ex vivo IVIS flux in mice; design: species or system CD-1 or c57BL/6J mice; settings: 0.5 mg/kg RNA intravenously
Experimental: Female CD-1 or female c57BL/6J mice ranging from 22-25 g were dosed at 0.5 mg/kg RNA intravenously. Six hours after injection, mice were injected intraperitoneally with 200 μL of D-luciferin at 15 mg/mL concentration. 5 minutes after injection, mice were anesthetized using isoflurane, and placed inside the IVIS Spectrum In Vivo Imaging System (Perkin Elmer) with dorsal side up. Post 10 minutes injection, mice were scanned for luminescence. Mice were euthanized and organs were extracted within 25 minutes of luciferin injection to scan for luminescence in liver, spleen, kidneys, lungs, and heart. Images (FIGS. 33A-B, 34A-B, 35A-B) were analyzed using Living Images (Perkin Elmer) software. Regions of interest were drawn to obtain flux and average radiance and analyzed for biodistribution of protein expression (FIG. 32A-B).

[2] = tested on: splenic immune cells; assay: Cre circular RNA LNPs in Cre reporter (Ai9) mice: tdTomato+ splenic immune cells; type: in vivo; settings: 0.5 mg/kg RNA intravenously, 48 hr
Experimental: Circular RNAs encoding Cre recombinase (Cre) are encapsulated into lipid nanoparticles as previously described. Female, 6-8 week old B6.Cg-Gt(ROSA)26Sortm9(CAG-tdTomato)Hze/J (Ai9) mice were dosed with lipid nanoparticles at 0.5 mg/kg RNA intravenously. Fluorescent tdTomato protein was transcribed and translated in Ai9 mice upon Cre recombination, meaning circular RNAs have been delivered to and translated in tdTomato+ cells. After 48 hr, mice were euthanized and the spleens were harvested, processed into a single cell suspension, and stained with various fluorophore-conjugated antibodies for immunophenotyping via flow cytometry.
Ai9 mice (B6.Cg-Gt(ROSA)26Sortm9(CAG-tdTomato)Hze/J, female, 6-8 weeks, n=3 per group) were injected i.v. with 0.5 mg/kg Cre oRNA LNPs or PBS. Ai9 mice transcribe and translate the fluorescent reporter tdTomato upon Cre recombination; meaning cells which are tdTomato+ have successfully been transfected with Cre oRNA.

[3] = tested on: primary human T cells; assay: FLuc oRNA LNP transfection of primary human activated T cells with or without ApoE3; type: cell-based; settings: 200 ng RNA/well, 24-hour incubation, 4 independent donors
Experimental: Primary human T cells from independent donors were stimulated with aCD3/aCD28 and allowed to proliferate for 6 days in the presence of human serum and IL-2. Then, 100,000 cells were plated in a 96 well plate and LNPs containing oRNA coding for Firefly Luciferase (FLuc) were added to the cells at 200 ng RNA/well with or without Apolipoprotein E3 (ApoE3). After 24-hour incubation, luminescence was quantified using the Bright-Glo Luciferase Assay System (Promega) according to manufacturer's instructions and background luminescence from cells not treated with LNPs was subtracted. […] (See Example 70 for LNP formulation procedure, e.g., for 10a-27 (5.7A), 10a-26 (5.7A), 10a-27 (4.5D), and 10a-26 (4.5D) LNPs.)

[4] = tested on: HEK293 cells; assay: GLuc luminescence by IRES in HEK293 cells; settings: 100 ng circularization reaction per 20,000 cells
[5] = tested on: 1C1C7 cells; assay: GLuc luminescence and functional stability by IRES in 1C1C7 cells; settings: 100 ng circularization reaction per 20,000 cells

CCCCCCCCCOC(=O)CCCCCCCN(CCO)CCCCCCCC(=O)OC(CCCCCCCC)CCCCCCCC [Lipid 15 from Table 10b]
spleen to liver ratios [1]: maintaining the desired spleen to liver ratios | proportion of splenic immune cells expressing tdTomato (transfection) [2]: effective at delivering circular RNAs to many splenic immune cell subsets in mice

CCCCCCCCC(CCCCCC)C(=O)OCCCCCCN(CCCCCCOC(=O)C(CCCCCC)CCCCCCCC)CCCn1ccnc1C (stereo not shown) [Lipid 27 from Table 10a, ((3-(2-methyl-1H-imidazol-1-yl)propyl)azanediyl)bis(hexane-6,1-diyl) bis(2-hexyldecanoate)]
proportion of splenic immune cells expressing tdTomato (transfection) ([2]; 0.5 mg/kg): significantly higher myeloid and T cell transfection compared with Lipid 93-S14; also recorded: effective at delivering circular RNAs to many splenic immune cell subsets in mice | proportion of splenic immune cells expressing tdTomato (transfection) ([2]; listed as Lipid 10a-27, 0.5 mg/kg): transfect significantly more splenic immune cells than those made with Lipid 10a-46 | Firefly luminescence [3]: generally produced higher luminescence than those containing Lipid 26 from Table 10a (10a-26)

B1: Crohivirus B IRES: "Crohivirus B (CrVB) IRES", one of the selected IRES sequences, SEQ ID NOs: 348-389 (nucleic acid)
DNA: GTATAAGAGACAGGTGTTTGCCTTGTCTTCGGACTGGCATCTTGGGACCAACCCCCCTTTTCCCCAGCCATGGGTTAAATGGCAATAAAGGACGTAACAACTTTGTAACCATTAAGCTTTGTAATTTTGTAACCACTAAGCTTTGTGCACATAATGTAACCATCAAGCTTGTTAGTCCCAGCAGGAGGTTTGCATGCTTGTAGCCGAAATGGGGCTCGACCCCCCATAGTAGGATACTTGATTTTGCATTCCATTGTGGACCTGCAAACTCTACACATAGAGGCTTTGTCTTGCATCTAAACACCTGAGTACAGTGTGTACCTAGACCCTATAGTACGGGAGGACCGTTTGTTTCCTCAATAACCCTACATAATAGGCTAGGTGGGCATGCCCAATTTGCAAGATCCCAGACTGGGGGTCGGTCTGGGCAGGGTTAGATCCCTGTTAGCTACTGCCTGATAGGGTGGTGCTCAACCATGTGTAGTTTAAATTGAGCTGTTCATATACC
modifications: Crohivirus B
luminescence at 24 hours [4]: highest luminescence

B2: Salivirus A SZ-1 (nucleic acid)
DNA: TCTGTCCTCACCCCATCTTCCCTTCTTTCCTGCACCGTTACGCTTACTCGCATGTGCATTGAGTGGTGCACGTGCTTGAACAAACAGCTACACTCACATGGGGGCGGGTTTTCCCGCCCTGCGGCCTCTCGCGAGGCCCACCCCTCCCCTTCCTCCCATAACTACAGTGCTTTGGTAGGTAAGCATCCTGATCCCCCGCGGAAGCTGCTCACGTGGCAACTGTGGGGACCCAGACAGGTTATCAAAGGCACCCGGTCTTTCCGCCTTCAGGAGTATCCCTGCTAGTGAATTCTAGTAGGGCTCTGCTTGGTGCCAACCTCCCCCAAATGCGCGCTGCGGGAGTGCTCTTCCCCAACTCACCCTAGTATCCTCTCATGTGTGTGCTTGGTCAGCATATCTGAGACGATGTTCCGCTGTCCCAGACCAGTCCAGTAATGGACGGGCCAGTGTGCGTAGTCGTCTTCCGGCTTGTCCGGCGCATGTTTGGTGAACCGGTGGGGTAAGGTTGGTGTGCCCAACGCCCGTACTTTGGTGATACCTCAAGACCACCCAGGAATGCCAGGGAGGTACCCCGCTTCACAGCGGGATCTGACCCTGGGCTAATTGTCTACGGTGGTTCTTCTTGCTTCCACTTCTTTCTACTGTTCATG
luminescence at 24 hours [5]: high luminescence

Reference: US20230226096A1 (Orna Therapeutics, Inc., priority 2020, published 2023)
